According to US20080299166A1, “NOVEL BIOMATERIALS, THEIR PREPARATION AND USE” (priority 2002, published 2008):

Assay: In vitro release of Ketotifen-hydrogenfumarate from drug-loaded polymeric matrix
Assay type: physicochemical
Details: under the same conditions (stirred aqueous system)
Description: Two consecutive batches of the polymeric matrix were prepared at lab scale and loaded with the selected water-soluble investigational drug, Ketotifen hydrogenfumarate in accordance with the method described in Example 11. The in vitro release profile of the Ketotifen depot formulation was carried out as follows: […]
1 g of the dry polymeric matrix loaded with Ketotifen-hydrogenfumarate according to Example 11. was stirred with 600 r.p.m. in 50 ml of deionised water at 37° C. The released amount of Ketotifen-hydrogenfumarate was determined by HPLC.
Matrices with 8% Ketotifen load were prepared as described in Example 11. Using two different Hyaluronic acid containing reaction mixtures. One contained 1%, while the other 0.5% hyaluronic acid. […] (See Table 7.) The in vitro dissolution test was performed as described in Example 12.

CN1CCC(=C2c3ccccc3CC(=O)c3sccc32)CC1 [non-formulated plain Ketotifen, Ketotifen-hydrogenfumarate]
release compared with the matrix: much faster
